How the values were obtained:
Assay type in all cases: in vivo
[1] = system: velvetleaf (Abutilon theophrasti); experiment: Test A pre-/postemergence greenhouse herbicide test; conditions: 0 to 100 scale (0 no effect, 100 complete control), approx. 10 d
From the text: (§1) Seeds of plant species selected from barnyardgrass (Echinochloa crus-galli), crabgrass, Large (large crabgrass, Digitaria sanguinalis), foxtail, giant (giant foxtail, Setaria faberii), morningglory (Ipomoea spp.), pigweed (Amaranthus retroflexus), velvetleaf (Abutilon theophrasti), wheat (Triticum aestivum), and corn (Zea mays) were planted into a blend of loam soil and sand and treated preemergence with a directed soil spray using test chemicals formulated in a non-phytotoxic solvent mixture which included a surfactant. At the same time these species were also treated with postemergence applications of test chemicals formulated in the same manner.
(§2) Plants ranged in height from 2 to 10 cm and were in the one- to two-leaf stage for the postemergence treatment. Treated plants and untreated controls were maintained in a greenhouse for approximately 10 d, after which time all treated plants were compared to untreated controls and visually evaluated for injury. Plant response ratings, summarized in Table A, are based on a 0 to 100 scale where 0 is no effect and 100 is complete control. A dash (-) response means no test result.

[2] = system: crabgrass, Large (large crabgrass, Digitaria sanguinalis); experiment: as above; conditions: 0 to 100 scale (0 no effect, 100 complete control), approx. 10 d
From the text: as §1, §2

[3] = system: barnyardgrass (Echinochloa crus-galli); experiment: as above; conditions: 0 to 100 scale (0 no effect, 100 complete control), approx. 10 d
From the text: as §1, §2

[4] = system: foxtail, giant (giant foxtail, Setaria faberii); experiment: as above; conditions: 0 to 100 scale (0 no effect, 100 complete control), approx. 10 d
From the text: as §1, §2

[5] = system: wheat (Triticum aestivum); experiment: as above; conditions: 0 to 100 scale (0 no effect, 100 complete control), approx. 10 d
From the text: as §1, §2

[6] = system: corn (Zea mays); experiment: as above; conditions: 0 to 100 scale (0 no effect, 100 complete control), approx. 10 d
From the text: as §1, §2

[7] = system: morningglory (Ipomoea spp.); experiment: as above; conditions: 0 to 100 scale (0 no effect, 100 complete control), approx. 10 d
From the text: as §1, §2

[8] = system: pigweed (Amaranthus retroflexus); experiment: as above; conditions: 0 to 100 scale (0 no effect, 100 complete control), approx. 10 d
From the text: as §1, §2

[9] = system: rice (Oryza sativa); experiment: Test B flooded paddy test; conditions: Flood, 125 g ai/ha; scale of 0 to 100, 0 is no effect, 100 is complete control; 13 to 15 d
Method: (§3) Plant species in the flooded paddy test selected from rice (Oryza sativa), small-flower sedge, umbrella (small-flower umbrella sedge, Cyperus difformis), ducksalad (Heteranthera limosa), and barnyardgrass (Echinochloa crus-galli) were grown to the 2-leaf stage for testing. At time of treatment, test pots were flooded to 3 cm above the soil surface, treated by application of test compounds directly to the paddy water, and then maintained at that water depth for the duration of the test. Treated plants and controls were maintained in a greenhouse for 13 to 15 d, after which time all species were compared to controls and visually evaluated. Plant response ratings, summarized in Table B, are based on a scale of 0 to 100 where 0 is no effect and 100 is complete control. A dash (-) response means no test result.

[10] = system: barnyardgrass (Echinochloa crus-galli); experiment: Test B flooded paddy test; conditions: Flood, 125 g ai/ha; scale of 0 to 100, 0 is no effect, 100 is complete control; 13 to 15 d
Method: as §3

[11] = system: sedge, umbrella (small-flower umbrella sedge, Cyperus difformis); experiment: Test B flooded paddy test; conditions: Flood, 125 g ai/ha; scale of 0 to 100, 0 is no effect, 100 is complete control; 13 to 15 d
Method: as §3

[12] = system: ducksalad (Heteranthera limosa); experiment: Test B flooded paddy test; conditions: Flood, 125 g ai/ha; scale of 0 to 100, 0 is no effect, 100 is complete control; 13 to 15 d
Method: as §3

| SMILES | Plant response rating, Velvetleaf ([1]; Postemergence, 125 g ai/ha) | Plant response rating, Velvetleaf ([1]; Postemergence, 500 g ai/ha) | Plant response rating, Velvetleaf ([1]; Preemergence, 125 g ai/ha) | Plant response rating, Velvetleaf ([1]; Preemergence, 500 g ai/ha) | Plant response rating, Crabgrass, Large ([2]; Postemergence, 125 g ai/ha) | Plant response rating, Crabgrass, Large ([2]; Postemergence, 500 g ai/ha) | Plant response rating, Crabgrass, Large ([2]; Preemergence, 125 g ai/ha) | Plant response rating, Crabgrass, Large ([2]; Preemergence, 500 g ai/ha) | Plant response rating, Barnyardgrass ([3]; Postemergence, 125 g ai/ha) | Plant response rating, Barnyardgrass ([3]; Postemergence, 500 g ai/ha) | Plant response rating, Barnyardgrass ([3]; Preemergence, 125 g ai/ha) | Plant response rating, Barnyardgrass ([3]; Preemergence, 500 g ai/ha) | Plant response rating, Foxtail, Giant ([4]; Postemergence, 125 g ai/ha) | Plant response rating, Foxtail, Giant ([4]; Postemergence, 500 g ai/ha) | Plant response rating, Foxtail, Giant ([4]; Preemergence, 125 g ai/ha) | Plant response rating, Foxtail, Giant ([4]; Preemergence, 500 g ai/ha) | Plant response rating, Wheat ([5]; Postemergence, 125 g ai/ha) | Plant response rating, Wheat ([5]; Postemergence, 500 g ai/ha) | Plant response rating, Wheat ([5]; Preemergence, 125 g ai/ha) | Plant response rating, Wheat ([5]; Preemergence, 500 g ai/ha) | other results |
| --- | --- | --- | --- | --- | --- | --- | --- | --- | --- | --- | --- | --- | --- | --- | --- | --- | --- | --- | --- | --- | --- |
| CCCOc1cc(=O)n(-c2ccc(C(F)(F)F)cc2)nc1Cc1ccnc(C(F)(F)F)c1 [Compound 19] | 10 | 50 | 0 | 10 | 10 | 20 | 70 | 90 | 10 | 20 | 0 | 10 | 10 | 20 | 40 | 70 | 0 | 10 | 0 | 0 | Plant response rating, Corn ([6]; Postemergence, 125 g ai/ha): 10; Plant response rating, Corn ([6]; Postemergence, 500 g ai/ha): 10; Plant response rating, Corn ([6]; Preemergence, 125 g ai/ha): 0; Plant response rating, Corn ([6]; Preemergence, 500 g ai/ha): 0; Plant response rating, Morningglory ([7]; Postemergence, 125 g ai/ha): 10; Plant response rating, Morningglory ([7]; Postemergence, 500 g ai/ha): 30; Plant response rating, Morningglory ([7]; Preemergence, 125 g ai/ha): 0; Plant response rating, Morningglory ([7]; Preemergence, 500 g ai/ha): 10; Plant response rating, Pigweed ([8]; Postemergence, 125 g ai/ha): 80; Plant response rating, Pigweed ([8]; Postemergence, 500 g ai/ha): 80; Plant response rating, Pigweed ([8]; Preemergence, 125 g ai/ha): 60; Plant response rating, Pigweed ([8]; Preemergence, 500 g ai/ha): 70; Plant response rating, Rice [9]: 0; Plant response rating, Barnyardgrass [10]: 0; Plant response rating, Sedge, Umbrella [11]: 0; Plant response rating, Ducksalad [12]: 0 |
| CN(C)c1cc(=O)n(-c2ccc(F)cc2)nc1Cc1ccnc(C(F)(F)F)c1 [Compound 20] | 60 | 70 | 20 | 50 | 50 | 90 | 100 | 100 | 50 | 90 | 20 | 90 | 40 | 80 | 80 | 100 | 0 | 50 | 0 | 30 | Plant response rating, Corn ([6]; Postemergence, 125 g ai/ha): 30; Plant response rating, Corn ([6]; Postemergence, 500 g ai/ha): 60; Plant response rating, Corn ([6]; Preemergence, 125 g ai/ha): 0; Plant response rating, Corn ([6]; Preemergence, 500 g ai/ha): 10; Plant response rating, Morningglory ([7]; Postemergence, 125 g ai/ha): 50; Plant response rating, Morningglory ([7]; Postemergence, 500 g ai/ha): 100; Plant response rating, Morningglory ([7]; Preemergence, 125 g ai/ha): 10; Plant response rating, Morningglory ([7]; Preemergence, 500 g ai/ha): 60; Plant response rating, Pigweed ([8]; Postemergence, 125 g ai/ha): 90; Plant response rating, Pigweed ([8]; Postemergence, 500 g ai/ha): 100; Plant response rating, Pigweed ([8]; Preemergence, 125 g ai/ha): 100; Plant response rating, Pigweed ([8]; Preemergence, 500 g ai/ha): 100; Plant response rating, Rice [9]: 0; Plant response rating, Barnyardgrass [10]: 0; Plant response rating, Sedge, Umbrella [11]: 0; Plant response rating, Ducksalad [12]: 0 |
| CN(C)c1cc(=O)n(-c2ccc(C(F)(F)F)cc2)nc1Cc1ccnc(C(F)(F)F)c1 [Compound 21] | 60 | 80 | 0 | 20 | 20 | 60 | 80 | 100 | 40 | 50 | 10 | 30 | 30 | 50 | 30 | 70 | 20 | 30 | 0 | 10 | Plant response rating, Corn ([6]; Postemergence, 125 g ai/ha): 20; Plant response rating, Corn ([6]; Postemergence, 500 g ai/ha): 40; Plant response rating, Corn ([6]; Preemergence, 125 g ai/ha): 0; Plant response rating, Corn ([6]; Preemergence, 500 g ai/ha): 0; Plant response rating, Morningglory ([7]; Postemergence, 125 g ai/ha): 30; Plant response rating, Morningglory ([7]; Postemergence, 500 g ai/ha): 60; Plant response rating, Morningglory ([7]; Preemergence, 125 g ai/ha): 0; Plant response rating, Morningglory ([7]; Preemergence, 500 g ai/ha): 10; Plant response rating, Pigweed ([8]; Postemergence, 125 g ai/ha): 90; Plant response rating, Pigweed ([8]; Postemergence, 500 g ai/ha): 90; Plant response rating, Pigweed ([8]; Preemergence, 125 g ai/ha): 100; Plant response rating, Pigweed ([8]; Preemergence, 500 g ai/ha): 100; Plant response rating, Rice [9]: 0; Plant response rating, Barnyardgrass [10]: 0; Plant response rating, Sedge, Umbrella [11]: 90; Plant response rating, Ducksalad [12]: 0 |
| CCCc1cc(=O)n(-c2ccc(F)cc2)nc1Cc1ccnc(C(F)(F)F)c1 [Compound 24] | 80 | 80 | 30 | 80 | 70 | 90 | 100 | 100 | 70 | 90 | 70 | 100 | 70 | 80 | 100 | 100 | 50 | 70 | 30 | 50 | Plant response rating, Corn ([6]; Postemergence, 125 g ai/ha): 50; Plant response rating, Corn ([6]; Postemergence, 500 g ai/ha): 60; Plant response rating, Corn ([6]; Preemergence, 125 g ai/ha): 30; Plant response rating, Corn ([6]; Preemergence, 500 g ai/ha): 50; Plant response rating, Morningglory ([7]; Postemergence, 125 g ai/ha): 50; Plant response rating, Morningglory ([7]; Postemergence, 500 g ai/ha): 90; Plant response rating, Morningglory ([7]; Preemergence, 125 g ai/ha): 30; Plant response rating, Morningglory ([7]; Preemergence, 500 g ai/ha): 80; Plant response rating, Pigweed ([8]; Postemergence, 125 g ai/ha): 100; Plant response rating, Pigweed ([8]; Postemergence, 500 g ai/ha): 100; Plant response rating, Pigweed ([8]; Preemergence, 125 g ai/ha): 100; Plant response rating, Pigweed ([8]; Preemergence, 500 g ai/ha): 100; Plant response rating, Rice [9]: 20; Plant response rating, Barnyardgrass [10]: 0; Plant response rating, Sedge, Umbrella [11]: 90; Plant response rating, Ducksalad [12]: 30 |
